# Activity calls are given as the source filed them. The calls are words filed in the database; no cut-off is given here.
# Key:
# [1] = AUC (0 to t) in ICR mouse at 3 mg/kg, iv measured up to 24 hrs by HPLC-MS/MS analysis; type: ADME, organism-based; parameters: route intravenous, dose 3 mg/kg, time <=24; conditions: in vivo
# [2] = Drug concentration in ICR mouse plasma at 3 mg/kg, iv measured at 2 hrs; type: ADME, organism-based
# [3] = […] in ICR mouse assessed as decrease in body weight at 30 mg/kg, po administered for 28 days; type: organism-based; conditions: in vivo, 672 h, time 28 day
# [4] = […] in ICR mouse assessed as body weight gain at 30 mg/kg, po administered for 28 days; type: organism-based; conditions: in vivo, 672 h, time 28 day
# Vero = assay: Cytotoxicity against African green monkey Vero cells assessed as cell growth inhibition measured after 48 hrs by CCK8 assay; type: cell-based; conditions: Chlorocebus sabaeus
# [5] = Tmax in ICR mouse at 10 mg/kg, po measured up to 24 hrs by HPLC-MS/MS analysis; type: ADME, organism-based; conditions: in vivo
# L929 = assay: Cytotoxicity against mouse L929 cells assessed as cell growth inhibition measured after 48 hrs by CCK8 assay; type: cell-based; conditions: L929, 48 h
# Mus musculus [6] = assay: Antidepressant activity in ICR mouse assessed as decrease in immobility time at 3 to 10 mg/kg, ip measured after 26 mins by forced swim test; type: functional, organism-based; conditions: dose 3-10 mg/kg
# [7] = Ratio of drug concentration in brain to plasma in ICR mouse at 3 mg/kg, iv measured at 0.5 hrs by LC-MS/MS analysis; type: ADME, organism-based; conditions: read-out: BPR
# [8] = Ratio of drug concentration in brain to plasma in ICR mouse at 10 mg/kg, po measured at 2 hrs by LC-MS/MS analysis; type: ADME, organism-based; conditions: read-out: BPR
# [9] = AUC (0 to t) in ICR mouse at 10 mg/kg, po measured up to 24 hrs by HPLC-MS/MS analysis; type: ADME, organism-based; parameters: route oral, dose 10 mg/kg, time <=24; conditions: in vivo
# Mus musculus [10] = assay: Antidepressant activity in ICR mouse assessed as decrease in immobility time at 30 mg/kg, ip measured after 26 mins by forced swim test; type: functional, organism-based
# [11] = Oral bioavailability in ICR mouse at 10 mg/kg measured up to 24 hrs by HPLC-MS/MS analysis; type: ADME, organism-based; conditions: in vivo
# [12] = Drug concentration in ICR mouse plasma at 10 mg/kg, po measured at 0.5 hrs by LC-MS/MS analysis; type: ADME, organism-based
# [13] = Cytotoxicity against African green monkey Vero cells assessed as cell growth inhibition at 60 uM measured after 48 hrs by CCK8 assay relative to control; type: cell-based; conditions: chlorocebus sabaeus
# [14] = Effect on locomotor activity in ICR mouse assessed as hyperlocomotion at 10 mg/kg, ip measured after 90 mins; type: ADME, organism-based; conditions: in vivo, 1.5 h
# [15] = Volume of distribution at steady state in ICR mouse at 3 mg/kg, iv measured up to 24 hrs by HPLC-MS/MS analysis; type: ADME, organism-based; conditions: in vivo, read-out: Vdss
# [16] = Ratio of drug concentration in brain to plasma in ICR mouse at 10 mg/kg, po measured at 0.5 hrs by LC-MS/MS analysis; type: ADME, organism-based; conditions: read-out: BPR
# [17] = MRT in ICR mouse at 10 mg/kg, po measured up to 24 hrs by HPLC-MS/MS analysis; type: ADME, organism-based; conditions: in vivo
# Glutamate NMDA receptor = assay: Positive allosteric modulation of C57BL/6 mouse NMDA receptor assessed as potentiation of NMDA-induced current in presence of saturating glutamate by patch-clamp method; type: tissue-based, Brain
# [18] = Effect on locomotor activity in ICR mouse assessed as hypolocomotion at 10 mg/kg, ip measured after 90 mins; type: ADME, organism-based; conditions: in vivo, 1.5 h
# [19] = Drug concentration in ICR mouse brain at 3 mg/kg, iv measured at 0.5 hrs by LC-MS/MS analysis; type: ADME, organism-based; conditions: read-out: Ct
# [20] = Cytotoxicity against human HEK293 cells assessed as cell growth inhibition at 120 uM measured after 48 hrs by CCK8 assay relative to control; type: cell-based
# [21] = Cytotoxicity against African green monkey Vero cells assessed as cell growth inhibition at 120 uM measured after 48 hrs by CCK8 assay relative to control; type: cell-based; conditions: chlorocebus sabaeus
# [22] = Half life in ICR mouse at 3 mg/kg, iv measured up to 24 hrs by HPLC-MS/MS analysis; type: ADME, organism-based; conditions: in vivo
# [23] = […] in ICR mouse assessed as change in behaviour at 30 mg/kg, po administered for 28 days; type: organism-based; conditions: in vivo, 672 h, time 28 day
# [24] = Drug concentration in ICR mouse brain at 10 mg/kg, po measured at 2 hrs by LC-MS/MS analysis; type: ADME, organism-based; conditions: read-out: Ct
# [25] = Drug concentration in ICR mouse brain at 10 mg/kg, po measured at 0.5 hrs by LC-MS/MS analysis; type: ADME, organism-based; conditions: read-out: Ct
# [26] = Cmax in ICR mouse at 10 mg/kg, po measured up to 24 hrs by HPLC-MS/MS analysis; type: ADME, organism-based; parameters: route oral, dose 10 mg/kg, time <=24; conditions: in vivo
# [27] = Cytotoxicity against human HEK293 cells assessed as cell growth inhibition at 60 uM measured after 48 hrs by CCK8 assay relative to control; type: cell-based
# [28] = Acute toxicity in ip dosed ICR mouse assessed as lethal dose measured after 24 hrs; type: organism-based; conditions: in vivo
# hERG (KCNH2) [29] = target: T1, hERG (KCNH2) (Homo sapiens, UniProt Q12809); assay: Inhibition of human ERG expressed in CHO cells at 100 uM with holding potential at -80 to -60 mV for 500s followed by raise in potential at +30 mV for 2 sec and subsequent repolarization to -60 mV for 2 sec by whole-cell patch clamp method relative to control; type: cell-based; conditions: CHO cells expressing human ERG
# [30] = Drug concentration in ICR mouse plasma at 10 mg/kg, po measured at 2 hrs by LC-MS/MS analysis; type: ADME, organism-based
# [31] = Clearance in ICR mouse at 3 mg/kg, iv measured up to 24 hrs by HPLC-MS/MS analysis; type: ADME, organism-based; conditions: in vivo
# [32] = Drug concentration in ICR mouse brain at 3 mg/kg, iv measured at 2 hrs; type: ADME, organism-based; conditions: read-out: Ct
# Mus musculus [33] = assay: Antidepressant activity in ICR mouse aassessed as inhibition of apomorphine-induced climbing behaviour at 10 mg/kg, ip administered prior to APO challenge and measured after 30 mins; type: functional, organism-based
# [34] = Cytotoxicity against mouse L929 cells assessed as cell growth inhibition at 120 uM measured after 48 hrs by CCK8 assay relative to control; type: cell-based
# hERG (KCNH2) [35] = target: T1, hERG (KCNH2); assay: Inhibition of human ERG expressed in CHO cells at 30 uM with holding potential at -80 to -60 mV for 500s followed by raise in potential at +30 mV for 2 sec and subsequent repolarization to -60 mV for 2 sec by whole-cell patch clamp method relative to control; type: cell-based; conditions: CHO cells expressing human ERG
# [36] = Half life in ICR mouse at 10 mg/kg, po measured up to 24 hrs by HPLC-MS/MS analysis; type: ADME, organism-based; conditions: in vivo
# HEK293 = assay: Cytotoxicity against human HEK293 cells assessed as cell growth inhibition measured after 48 hrs by CCK8 assay; type: cell-based; conditions: HEK293, 48 h
# [37] = Cytotoxicity against mouse L929 cells assessed as cell growth inhibition at 60 uM measured after 48 hrs by CCK8 assay relative to control; type: cell-based
# [38] = Ratio of drug concentration in brain to plasma in ICR mouse at 3 mg/kg, iv measured at 2 hrs by LC-MS/MS analysis; type: ADME, organism-based; conditions: read-out: BPR
# [39] = Drug concentration in ICR mouse plasma at 3 mg/kg, iv measured at 0.5 hrs by LC-MS/MS analysis; type: ADME, organism-based
# [40] = Brain to blood partition coefficient of the compound; type: physicochemical, tissue-based; conditions: read-out: logBB (converted)
# [41] = MRT in ICR mouse at 3 mg/kg, iv measured up to 24 hrs by HPLC-MS/MS analysis; type: ADME, organism-based; conditions: in vivo
# T1 sequence (Q12809 whole entry): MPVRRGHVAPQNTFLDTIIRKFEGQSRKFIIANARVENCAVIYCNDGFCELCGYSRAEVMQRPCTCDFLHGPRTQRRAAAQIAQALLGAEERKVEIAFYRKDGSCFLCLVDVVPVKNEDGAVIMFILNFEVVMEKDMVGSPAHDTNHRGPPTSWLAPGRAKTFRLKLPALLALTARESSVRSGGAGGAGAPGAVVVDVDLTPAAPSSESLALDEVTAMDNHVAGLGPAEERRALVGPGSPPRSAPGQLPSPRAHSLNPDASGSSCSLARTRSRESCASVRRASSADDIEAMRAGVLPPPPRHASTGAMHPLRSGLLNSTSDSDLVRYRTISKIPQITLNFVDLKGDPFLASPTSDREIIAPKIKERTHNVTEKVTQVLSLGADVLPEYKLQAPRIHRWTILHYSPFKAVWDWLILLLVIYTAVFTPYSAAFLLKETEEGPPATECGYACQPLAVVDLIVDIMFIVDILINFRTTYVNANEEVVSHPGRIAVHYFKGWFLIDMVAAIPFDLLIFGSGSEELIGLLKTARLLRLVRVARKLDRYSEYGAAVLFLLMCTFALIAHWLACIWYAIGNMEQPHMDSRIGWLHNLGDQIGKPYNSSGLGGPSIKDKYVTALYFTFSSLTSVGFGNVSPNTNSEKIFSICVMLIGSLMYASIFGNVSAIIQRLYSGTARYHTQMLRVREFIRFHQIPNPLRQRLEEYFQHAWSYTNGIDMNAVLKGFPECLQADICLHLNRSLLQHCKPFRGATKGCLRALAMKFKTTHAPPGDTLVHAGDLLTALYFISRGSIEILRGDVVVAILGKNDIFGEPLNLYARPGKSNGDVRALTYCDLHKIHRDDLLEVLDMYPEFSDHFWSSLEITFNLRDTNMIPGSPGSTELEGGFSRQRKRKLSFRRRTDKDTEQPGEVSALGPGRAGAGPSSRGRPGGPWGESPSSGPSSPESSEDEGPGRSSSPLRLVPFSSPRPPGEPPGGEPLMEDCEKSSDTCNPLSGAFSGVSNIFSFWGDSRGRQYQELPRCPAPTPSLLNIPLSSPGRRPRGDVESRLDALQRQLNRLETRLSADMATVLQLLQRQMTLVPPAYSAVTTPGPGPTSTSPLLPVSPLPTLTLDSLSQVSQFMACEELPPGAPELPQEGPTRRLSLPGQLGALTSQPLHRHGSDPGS
compound,measurement,setting,value
O=C(Nc1cc(Cl)cc(Cl)c1)c1ccc(Cn2nc(C(F)(F)F)cc2C(F)(F)F)o1,AUC(0-t) at 24 h,[1],1750 ng·h/mL
same,concentration at 2 h,[2],304 ng/mL
same,Activity,[3],Toxic
same,Activity,[4],Non-Toxic
same,IC50,Vero,23.2 µM
same,Tmax,[5],2 h
same,IC50,L929,29.7 µM
same,Activity,Mus musculus [6],Active
same,Kp at 0.5 h,[7],0.14
same,Kp at 2 h,[8],0.15
same,AUC(0-t) at 24 h,[9],4220 ng·h/mL
same,Activity,Mus musculus [10],Active
same,bioavailability,[11],72.2%
same,concentration at 0.5 h,[12],580 ng/mL
same,"inhibition at 48 h, 60 µM",[13],96.2%
same,Activity,[14],Non-Toxic
same,Vd,[15],12.7 L/kg
same,Kp at 0.5 h,[16],0.16
same,MRT,[17],4.7 h
same,EC50,Glutamate NMDA receptor,12.5 µM
same,Activity,[18],Non-Toxic
same,concentration at 0.5 h,[19],73.9 ng/mL
same,"inhibition at 48 h, 120 µM",[20],73.6%
same,"inhibition at 48 h, 120 µM",[21],95.8%
same,half-life,[22],5 h
same,Activity,[23],Non-Toxic
same,concentration at 2 h,[24],148 ng/mL
same,concentration at 0.5 h,[25],93.4 ng/mL
same,Cmax,[26],989 ng/mL
same,"inhibition at 48 h, 60 µM",[27],42%
same,LD50 at 24 h,[28],1500 mg/kg
same,"inhibition at 2 s, 100 µM",hERG (KCNH2) [29],68.4%
same,concentration at 2 h,[30],989 ng/mL
same,clearance,[31],30 mL/min/kg
same,concentration at 2 h,[32],49 ng/mL
same,Activity,Mus musculus [33],inactive
same,"inhibition at 48 h, 120 µM",[34],90.6%
same,"inhibition at 2 s, 30 µM",hERG (KCNH2) [35],49.1%
same,half-life,[36],5.7 h
same,IC50,HEK293,84.8 µM
same,"inhibition at 48 h, 60 µM",[37],84.3%
same,Kp at 2 h,[38],0.16
same,concentration at 0.5 h,[39],506 ng/mL
same,Kp,[40],3.98
same,MRT,[41],3.4 h

# — ChEMBL document CHEMBL4834434, “Discovery of Novel and Potent N-Methyl-d-aspartate Receptor Positive Allosteric Modulators with Antidepressant-like Activity in Rodent Models” (J Med Chem, 2021)
